± gives the expanded uncertainty stated by the source.
Details: 101.33 kPa, Liquid; for speed of sound: Sing-around technique in a fixed-path interferometer; for mass density: Vibrating tube method

Row | speed of sound (298.15 K) | mass density (298.15 K) | speed of sound (303.15 K) | mass density (303.15 K) | speed of sound (308.15 K) | mass density (308.15 K) | speed of sound (313.15 K) | mass density (313.15 K) | Compound
1 | 1149 ± 10 m/s | 785.7 ± 2 kg/m3 | 1128 ± 10 m/s | 782 ± 2 kg/m3 | 1098 ± 10 m/s | 777.7 ± 2 kg/m3 | 1086 ± 10 m/s | 773.6 ± 2 kg/m3 | CCO [ethanol]
2 | 1141 ± 10 m/s | 894.4 ± 2 kg/m3 | 1118 ± 10 m/s | 888.5 ± 2 kg/m3 | 1096 ± 10 m/s | 882.7 ± 2 kg/m3 | 1073 ± 10 m/s | 876.3 ± 2 kg/m3 | CCOC(C)=O [ethyl acetate]

Source: the NIST ThermoML archive (doi:10.1016/j.tca.2013.05.015)
